According to PMC7915724 (2021):

Tests used:
Test in all cases: SPR
[1] = test system: biotin-Py24 (VEGF i-motif) (DNA, i motif) GACCCCGCCCCCGGCCCGCCCCGG; details: 100 mM KCl; 20 mM MES pH 5.5, 0.05% Tween-20, 25 °C; tested up to 50 μM
[2] = test system: biotin-Py24 (VEGF i-motif) (DNA, i motif) GACCCCGCCCCCGGCCCGCCCCGG; details: 100 mM KCl, 20 mM MES pH 5.5, 0.05% Tween-20, 25 °C
[3] = test system: biotin-Hairpin (duplex DNA) (DNA, hairpin, HEG (hexaethylene glycol) linker between 10 and 11) TATAGCTATATATAGCTATA; details: 100 mM KCl; 20 mM Tris-HCl pH 7.4, 25 °C; tested up to 50 μM
[4] = test system: biotin-Pu24 (VEGF G-quadruplex) (DNA, G4) CCGGGGCGGGCCGGGGGCGGGGTC; details: 100 mM KCl; 20 mM Tris-HCl pH 7.4, 25 °C; tested up to 50 μM

SMILES	KD [1] [µM]	KD ([2]; tested up to 50 μM) [µM]	KD [3] [µM]	KD [4] [µM]	KD [2] [µM]
CC(=O)OC[C@H]1O[C@@H](n2cc(CNC(=O)[C@]34CCC(C)(C)C[C@H]3C3=CC[C@@H]5[C@@]6(C)CC[C@H](O)C(C)(C)[C@@H]6CC[C@@]5(C)[C@]3(C)CC4)nn2)[C@H](OC(C)=O)[C@@H](OC(C)=O)[C@@H]1OC(C)=O	> 50	–	–	–	–
CC1(C)CC[C@]2(C(=O)N3CCC(N4CCCCC4)CC3)CC[C@]3(C)C(=CC[C@@H]4[C@@]5(C)CC[C@H](O)C(C)(C)[C@@H]5CC[C@]43C)[C@@H]2C1	–	> 50	> 50	> 50	–
CC1(C)CC[C@]2(C(=O)N3CCN(C(=O)Cn4cnc5[nH]c(=O)[nH]c(=O)c54)CC3)CC[C@]3(C)C(=CC[C@@H]4[C@@]5(C)CC[C@H](O)C(C)(C)[C@@H]5CC[C@]43C)[C@@H]2C1	> 50	–	> 50	> 50	–
CC1(C)CC[C@]2(C(=O)N3CCN(c4ccc(F)cc4F)CC3)CC[C@]3(C)C(=CC[C@@H]4[C@@]5(C)CC[C@H](O)C(C)(C)[C@@H]5CC[C@]43C)[C@@H]2C1	> 50	–	> 50	> 50	–
CC1(C)CC[C@]2(C(=O)N3CCN(c4cccc(C(F)(F)F)c4)CC3)CC[C@]3(C)C(=CC[C@@H]4[C@@]5(C)CC[C@H](O)C(C)(C)[C@@H]5CC[C@]43C)[C@@H]2C1	> 50	–	> 50	> 50	–
CC1(C)CC[C@]2(C(=O)N3CCN(c4ccccn4)CC3)CC[C@]3(C)C(=CC[C@@H]4[C@@]5(C)CC[C@H](O)C(C)(C)[C@@H]5CC[C@]43C)[C@@H]2C1	> 50	–	> 50	> 50	–
CC1(C)CC[C@]2(C(=O)N3CCN(c4ncccn4)CC3)CC[C@]3(C)C(=CC[C@@H]4[C@@]5(C)CC[C@H](O)C(C)(C)[C@@H]5CC[C@]43C)[C@@H]2C1	> 50	–	> 50	> 50	–
CC1(C)CC[C@]2(C(=O)NCCNC(=O)c3ccccc3Nc3ccccc3)CC[C@]3(C)C(=CC[C@@H]4[C@@]5(C)CC[C@H](O)C(C)(C)[C@@H]5CC[C@]43C)[C@@H]2C1	> 50	–	> 50	> 50	–
CC1(C)CC[C@]2(C(=O)NCCNS(=O)(=O)N3CCOCC3)CC[C@]3(C)C(=CC[C@@H]4[C@@]5(C)CC[C@H](O)C(C)(C)[C@@H]5CC[C@]43C)[C@@H]2C1	–	–	> 50	> 50	13.8
CC1(C)CC[C@]2(C(=O)NCCc3c[nH]cn3)CC[C@]3(C)C(=CC[C@@H]4[C@@]5(C)CC[C@H](O)C(C)(C)[C@@H]5CC[C@]43C)[C@@H]2C1	–	–	> 50	> 50	12.1
CC1(C)CC[C@]2(C(=O)NCc3cn(-c4ncccn4)nn3)CC[C@]3(C)C(=CC[C@@H]4[C@@]5(C)CC[C@H](O)C(C)(C)[C@@H]5CC[C@]43C)[C@@H]2C1	–	–	> 50	> 50	12.3
CC1(C)CC[C@]2(C(=O)NCc3cn(CCC#N)nn3)CC[C@]3(C)C(=CC[C@@H]4[C@@]5(C)CC[C@H](O)C(C)(C)[C@@H]5CC[C@]43C)[C@@H]2C1	–	–	> 50	> 50	19.3
CC1(C)CC[C@]2(C(=O)NCc3cn(CCC(=O)O)nn3)CC[C@]3(C)C(=CC[C@@H]4[C@@]5(C)CC[C@H](O)C(C)(C)[C@@H]5CC[C@]43C)[C@@H]2C1	–	–	> 50	> 50	13.0
CC1(C)CC[C@]2(C(=O)NCc3cn(CCCN4CCCC4)nn3)CC[C@]3(C)C(=CC[C@@H]4[C@@]5(C)CC[C@H](O)C(C)(C)[C@@H]5CC[C@]43C)[C@@H]2C1	> 50	–	–	–	–
CC1(C)CC[C@]2(C(=O)NCc3cn(CCCN4CCOCC4)nn3)CC[C@]3(C)C(=CC[C@@H]4[C@@]5(C)CC[C@H](O)C(C)(C)[C@@H]5CC[C@]43C)[C@@H]2C1	> 50	–	–	–	–
CC1(C)CC[C@]2(C(=O)NCc3cn(CCCc4ccccc4)nn3)CC[C@]3(C)C(=CC[C@@H]4[C@@]5(C)CC[C@H](O)C(C)(C)[C@@H]5CC[C@]43C)[C@@H]2C1	> 50	–	> 50	> 50	–
CC1(C)CC[C@]2(C(=O)NCc3cn(CCN4CCCC4)nn3)CC[C@]3(C)C(=CC[C@@H]4[C@@]5(C)CC[C@H](O)C(C)(C)[C@@H]5CC[C@]43C)[C@@H]2C1	> 50	–	–	–	–
CC1(C)CC[C@]2(C(=O)NCc3cn(CCN4CCOCC4)nn3)CC[C@]3(C)C(=CC[C@@H]4[C@@]5(C)CC[C@H](O)C(C)(C)[C@@H]5CC[C@]43C)[C@@H]2C1	> 50	–	–	–	–
CC1(C)CC[C@]2(C(=O)NCc3cn(Cc4ccc(C(F)(F)F)cc4)nn3)CC[C@]3(C)C(=CC[C@@H]4[C@@]5(C)CC[C@H](O)C(C)(C)[C@@H]5CC[C@]43C)[C@@H]2C1	> 50	–	–	–	–
CC1(C)CC[C@]2(C(=O)NCc3cn(Cc4ccccc4)nn3)CC[C@]3(C)C(=CC[C@@H]4[C@@]5(C)CC[C@H](O)C(C)(C)[C@@H]5CC[C@]43C)[C@@H]2C1	> 50	–	> 50	> 50	–

SMILES	KD [1] [µM]	KD ([2]; tested up to 50 μM) [µM]	KD [3] [µM]	KD [4] [µM]	KD [2] [µM]
CC1(C)CC[C@]2(C(=O)NCc3cn(Cc4nc5ccccc5[nH]4)nn3)CC[C@]3(C)C(=CC[C@@H]4[C@@]5(C)CC[C@H](O)C(C)(C)[C@@H]5CC[C@]43C)[C@@H]2C1	–	–	> 50	> 50	10.6
CC1(C)CC[C@]2(C(=O)NCc3cn([C@@H]4O[C@H](CO)[C@@H](O)[C@H](O)[C@H]4O)nn3)CC[C@]3(C)C(=CC[C@@H]4[C@@]5(C)CC[C@H](O)C(C)(C)[C@@H]5CC[C@]43C)[C@@H]2C1	–	–	> 50	> 50	12.0
CCOC(=O)Cn1cc(CNC(=O)[C@]23CCC(C)(C)C[C@H]2C2=CC[C@@H]4[C@@]5(C)CC[C@H](O)C(C)(C)[C@@H]5CC[C@@]4(C)[C@]2(C)CC3)nn1	–	> 50	> 50	> 50	–
CN(C)CCn1cc(CNC(=O)[C@]23CCC(C)(C)C[C@H]2C2=CC[C@@H]4[C@@]5(C)CC[C@H](O)C(C)(C)[C@@H]5CC[C@@]4(C)[C@]2(C)CC3)nn1	> 50	–	–	> 50	–
COC(=O)[C@]12CCC(C)(C)C[C@H]1C1=CC[C@@H]3[C@@]4(C)C=C(C(=O)NCCCN5CCCC5)C(=O)C(C)(C)[C@@H]4CC[C@@]3(C)[C@]1(C)CC2	> 50	–	–	–	–
COC(=O)[C@]12CCC(C)(C)C[C@H]1C1=CC[C@@H]3[C@@]4(C)C=C(C(=O)NCCCc5ccccc5)C(=O)C(C)(C)[C@@H]4CC[C@@]3(C)[C@]1(C)CC2	> 50	–	–	–	–
COC(=O)[C@]12CCC(C)(C)C[C@H]1C1=CC[C@@H]3[C@@]4(C)C=C(C(=O)NCCc5ccc(C(F)(F)F)cc5)C(=O)C(C)(C)[C@@H]4CC[C@@]3(C)[C@]1(C)CC2	> 50	–	–	–	–
COC(=O)[C@]12CCC(C)(C)C[C@H]1C1=CC[C@@H]3[C@@]4(C)C=C(C(=O)O)C(=O)C(C)(C)[C@@H]4CC[C@@]3(C)[C@]1(C)CC2	–	> 50	> 50	> 50	–
COC(=O)[C@]12CCC(C)(C)C[C@H]1[C@H]1C(=O)C[C@@H]3[C@@](C)(CCC(=O)N4CCN(c5ccc(F)cc5F)CC4)[C@H](C(C)(C)O)CC[C@@]3(C)[C@]1(C)CC2	> 50	–	–	–	–
COC(=O)[C@]12CCC(C)(C)C[C@H]1[C@H]1C(=O)C[C@@H]3[C@@](C)(CCC(=O)NCCCN(C)C)[C@H](C(C)(C)O)CC[C@@]3(C)[C@]1(C)CC2	–	> 50	> 50	> 50	–
COC(=O)[C@]12CCC(C)(C)C[C@H]1[C@H]1C(=O)C[C@@H]3[C@@](C)(CCC(=O)NCCCN4CCOCC4)[C@H](C(C)(C)O)CC[C@@]3(C)[C@]1(C)CC2	–	–	> 50	> 50	31.3
COC(=O)[C@]12CCC(C)(C)C[C@H]1[C@H]1C(=O)C[C@@H]3[C@@](C)(CCC(=O)NCCCn4ccnc4)[C@H](C(C)(C)O)CC[C@@]3(C)[C@]1(C)CC2	–	–	> 50	> 50	21.1
COC(=O)[C@]12CCC(C)(C)C[C@H]1[C@H]1C(=O)C[C@@H]3[C@@](C)(CCC(=O)NCCc4cccs4)[C@H](C(C)(C)O)CC[C@@]3(C)[C@]1(C)CC2	> 50	–	–	–	–
COC(=O)[C@]12CCC(C)(C)C[C@H]1[C@H]1C(=O)C[C@@H]3[C@@](C)(CCC(=O)Nc4ccc(F)cc4)[C@H](C(C)(C)O)CC[C@@]3(C)[C@]1(C)CC2	> 50	–	–	–	–
COC(=O)[C@]12CCC(C)(C)C[C@H]1[C@H]1C(=O)C[C@@H]3[C@@](C)(CCC(=O)Nc4ccc(OC(F)(F)F)cc4)[C@H](C(C)(C)O)CC[C@@]3(C)[C@]1(C)CC2	> 50	–	–	–	–
COC(=O)[C@]12CCC(C)(C)C[C@H]1[C@H]1C(=O)C[C@@H]3[C@@](C)(CCC(=O)Nc4ccc(OC)cc4)[C@H](C(C)(C)O)CC[C@@]3(C)[C@]1(C)CC2	> 50	–	–	–	–
COc1ccc(C(=O)NCCNC(=O)[C@]23CCC(C)(C)C[C@H]2C2=CC[C@@H]4[C@@]5(C)CC[C@H](O)C(C)(C)[C@@H]5CC[C@@]4(C)[C@]2(C)CC3)c(OC)c1	–	> 50	> 50	> 50	–
COc1ccccc1N1CCN(C(=O)[C@]23CCC(C)(C)C[C@H]2C2=CC[C@@H]4[C@@]5(C)CC[C@H](O)C(C)(C)[C@@H]5CC[C@@]4(C)[C@]2(C)CC3)CC1	> 50	–	> 50	> 50	–
Cc1cn(CC(=O)N2CCN(C(=O)[C@]34CCC(C)(C)C[C@H]3C3=CC[C@@H]5[C@@]6(C)CC[C@H](O)C(C)(C)[C@@H]6CC[C@@]5(C)[C@]3(C)CC4)CC2)c(=O)[nH]c1=O	> 50	–	> 50	> 50	–
